In article doi:10.1101/2024.07.10.602875v1 (biorxiv, 2024):

Key:
TgIMPα [1] = target: T1, TgIMPα (Toxoplasma gondii, UniProt A0A125YID0); experiment: AlphaScreen, inhibition of IMPα:NLS interaction; assay type: binding
T1 sequence (A0A125YID0 1-545): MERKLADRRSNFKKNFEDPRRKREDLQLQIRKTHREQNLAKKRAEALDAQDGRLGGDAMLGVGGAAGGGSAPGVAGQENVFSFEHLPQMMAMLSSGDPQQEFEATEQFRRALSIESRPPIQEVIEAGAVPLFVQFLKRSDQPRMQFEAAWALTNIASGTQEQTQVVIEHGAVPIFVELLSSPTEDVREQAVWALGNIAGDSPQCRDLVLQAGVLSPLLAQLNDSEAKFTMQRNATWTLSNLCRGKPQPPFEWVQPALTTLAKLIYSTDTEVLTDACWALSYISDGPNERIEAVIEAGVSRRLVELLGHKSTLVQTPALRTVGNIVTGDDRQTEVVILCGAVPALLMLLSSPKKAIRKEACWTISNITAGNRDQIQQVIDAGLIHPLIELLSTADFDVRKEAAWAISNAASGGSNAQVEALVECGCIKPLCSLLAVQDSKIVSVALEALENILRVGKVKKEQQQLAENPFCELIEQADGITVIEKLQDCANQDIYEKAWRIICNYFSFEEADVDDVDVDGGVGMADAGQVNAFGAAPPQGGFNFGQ

TgIMPα [2] = target: T1, TgIMPα; experiment: intrinsic tryptophan fluorescence quenching; assay type: binding
T. gondii = experiment: microbe, parasite or virus in culture; parameters: species or system T. gondii RH-luciferase in HFF; details: Toxoplasma gondii, read-out: Cell viability IC50 (µM)
PfIMPα = target: T2, PfIMPα (Plasmodium falciparum, UniProt Q8IAW0); experiment: intrinsic tryptophan fluorescence quenching; assay type: binding
T2 sequence (Q8IAW0 1-545): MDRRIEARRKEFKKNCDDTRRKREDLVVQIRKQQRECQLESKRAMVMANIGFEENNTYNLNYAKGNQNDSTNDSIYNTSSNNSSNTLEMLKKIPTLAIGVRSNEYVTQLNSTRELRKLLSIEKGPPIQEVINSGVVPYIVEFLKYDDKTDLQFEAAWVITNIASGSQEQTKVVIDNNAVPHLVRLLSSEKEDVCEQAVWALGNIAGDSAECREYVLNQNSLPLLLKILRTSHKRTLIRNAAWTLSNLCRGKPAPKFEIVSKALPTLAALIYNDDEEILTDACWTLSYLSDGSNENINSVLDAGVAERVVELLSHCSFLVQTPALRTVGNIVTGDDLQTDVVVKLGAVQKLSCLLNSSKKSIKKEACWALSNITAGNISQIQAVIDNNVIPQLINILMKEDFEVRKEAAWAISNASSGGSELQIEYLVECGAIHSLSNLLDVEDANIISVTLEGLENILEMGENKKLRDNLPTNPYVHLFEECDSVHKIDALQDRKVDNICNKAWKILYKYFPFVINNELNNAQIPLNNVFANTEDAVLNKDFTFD

Row | IC50 (PfIMPα) | SMILES | IC50 (TgIMPα [1]) | IC50 (TgIMPα [2]) | IC50 (T. gondii)
1 | – | Cc1ccc(S(=O)(=O)/C=C/C#N)cc1 [Bay 11-7082] | 8.2 ± 1.3 µM | 17.5 ± 3.3 µM | 1.06 ± 0.07 µM
2 | 19.9 ± 3.7 µM | CC(C)(C)c1ccc(S(=O)(=O)/C=C/C#N)cc1 [Bay 11-7085] | – | 27.7 ± 9.4 µM | –
